Results as given in US7652153B2, “Caspase inhibitors and uses thereof” (Vertex Pharmaceuticals Incorporated, priority 2004, dated 2010).

What was measured:
[1] = biological target: T1, caspase-1 (Homo sapiens, UniProt P29466); test: Caspase-1 enzyme inhibition (Ki, method of Margolin et al.); type: biochemical; conditions: Suc-YVAD-pNA substrate 80 μM, 37° C., pH 7.5; read-out: Ki C1
T1 sequence (P29466 120-297 limits assumed): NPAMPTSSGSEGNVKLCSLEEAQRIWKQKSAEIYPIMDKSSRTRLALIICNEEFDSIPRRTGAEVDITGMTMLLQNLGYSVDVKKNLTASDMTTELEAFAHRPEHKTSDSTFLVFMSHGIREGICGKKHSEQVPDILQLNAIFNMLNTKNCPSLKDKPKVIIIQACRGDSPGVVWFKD
T1 sequence (P29466 317-404 limits assumed): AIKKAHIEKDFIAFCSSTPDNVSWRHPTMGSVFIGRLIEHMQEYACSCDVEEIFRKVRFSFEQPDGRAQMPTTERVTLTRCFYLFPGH
Procedure: (§1) Compounds of this invention may be tested using the methods described below.
(§2) In Vitro Assays Enzyme Inhibition
(§3) Ki values for test compounds with caspase-1 and caspase-8 were obtained by the method of Margolin et al. (J. Biol. Chem., 272 pp. 7223-7228 (1997)). Other caspases may be assayed similarly (see, e.g., WO 99/47545). Assays were performed in 10 mM Tris (Sigma Corp, St Louis Mo.) pH 7.5, 1 mM Dithiothreitol (DTT, Research Organic INC, Cleveland, Ohio) and 0.1% CHAPS (Pierce, Rockford Ill.) at 37° C. For caspase-3, a solution of 8% glycerol was added to the assay buffer to improve enzyme stability. A 65 μL aliquot of the assay buffer and 5 μL aliquot of the appropriate dilutions of inhibitor in DMSO where pipetted into a 96 well plate, treated with 10 μL of caspase, then diluted in assay buffer (0.5-40 nM active protein by active site titration). A control containing DMSO but no compound was included for each determination. The plates were then incubated for 15 minutes at 37° C., before addition of the appropriate substrate (20 μL, final concentration 1-4×KM, final assay volume 100 μL) to initiate the reaction. Reaction rates were measured at 37° C. either by following the time dependant increase in absorbance at 405 nm (for the pNA substrates) or in fluorescence (Ex 390, Em 460) (for the AMC substrates). The rates obtained were plotted against inhibitor concentration and the data fit to the Morrison tight-binding equation for competitive inhibitors (Morrison, J. F., Biochem. Biophys. Acta, 185 pp. 269-286 (1969)). The substrates used for the individual assays were as follows:
Caspase-1 Suc-YVAD-pNA (Bachem, King of Prussia, Pa.) (final concentration in the assay 80 μM);

[2] = biological target: caspase-8 (Homo sapiens, UniProt Q14790); test: Caspase-8 enzyme inhibition (Ki, method of Margolin et al.); type: biochemical; conditions: Ac-DEVD-pNA substrate 80 μM, 37° C., pH 7.5; read-out: Ki C8
Procedure: as §1, §2, §3
Caspase-8 Ac-DEVD-pNA (Bachem, King of Prussia, Pa.) (final concentration in assay 80 μM).

Chain of caspase-8 (Q14790 217-374 limits assumed, species assumed): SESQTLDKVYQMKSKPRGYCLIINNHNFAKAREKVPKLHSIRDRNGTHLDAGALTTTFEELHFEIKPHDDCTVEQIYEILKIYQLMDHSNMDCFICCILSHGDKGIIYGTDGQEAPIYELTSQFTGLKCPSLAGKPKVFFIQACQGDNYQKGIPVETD
Chain of caspase-8 (Q14790 385-479 limits assumed, species assumed): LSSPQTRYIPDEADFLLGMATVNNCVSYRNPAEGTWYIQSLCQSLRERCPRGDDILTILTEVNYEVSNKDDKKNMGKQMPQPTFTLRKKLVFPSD

Compound | Ki [1] [nM] | Ki [2] [nM]
CC(=O)Nc1cccc(C(=O)N[C@H](C(=O)N2CCC[C@H]2C(=O)N[C@H](C=O)CC(=O)O)C(C)(C)C)c1C [II-42, (S,S,S)-(3S)-({1-[(2S)-(2-methyl-3-acetamido-benzoylamino)-3,3-dimethyl-butyryl]-pyrrolidine-(2S)-carbonyl}-amino)-4-oxo-butyric acid] | < 10 | 10 to 20
CC(=O)Nc1ccc(C(=O)N[C@H](C(=O)N2CCC[C@H]2C(=O)N[C@H](C=O)CC(=O)O)C(C)C)c(F)c1 [II-45, (S,S,S)-(3S)-({1-[(2S)-(2-fluoro-4-acetamido-benzoylamino)-3-methyl-butyryl]-pyrrolidine-(2S)-carbonyl}-amino)-4-oxo-butyric acid] | < 10 | < 10
CC(C)[C@H](NC(=O)c1ccccc1Cl)C(=O)N1CCC[C@H]1C(=O)N[C@H](C=O)CC(=O)O [II-2, (S,S,S)-(3S)-({1-[(2S)-(2-Chloro-benzoylamino)-3-methyl-butyryl]-pyrrolidine-(2S)-carbonyl}-amino)-4-oxo-butyric acid] | < 10 | < 10
CC(C)(C)[C@H](NC(=O)c1cccc(OCC2CC2)c1Cl)C(=O)N1CCC[C@H]1C(=O)N[C@H](C=O)CC(=O)O [II-38, (S,S,S)-(3S)-({1-[(2S)-(2-Chloro-3-cyclopropylmethoxy-benzoylamino)-3,3-dimethyl-butyryl]-pyrrolidine-(2S)-carbonyl}-amino)-4-oxo-butyric acid] | < 10 | < 10
CC(=O)Nc1ccc(C(=O)N[C@H](C(=O)N2CCC[C@H]2C(=O)N[C@H](C=O)CC(=O)O)C(C)(C)C)c(F)c1 [II-44, (S,S,S)-(3S)-({1-[(2S)-(2-fluoro-4-acetamido-benzoylamino)-3,3-dimethyl-butyryl]-pyrrolidine-(2S)-carbonyl}-amino)-4-oxo-butyric acid] | < 10 | < 10
CC(C)C(=O)Nc1ccc(C(=O)N[C@H](C(=O)N2CCC[C@H]2C(=O)N[C@H](C=O)CC(=O)O)C(C)(C)C)c(Cl)c1 [II-49, (S,S,S)-(3S)-({1-[(2S)-(2-chloro-4-isobutyrylamido-benzoylamino)-3,3-dimethyl-butyryl]-pyrrolidine-(2S)-carbonyl}-amino)-4-oxo-butyric acid] | < 10 | < 10
CC(=O)Nc1ccc(C(=O)N[C@H](C(=O)N2[C@@H]3CC[C@@H](C3)[C@H]2C(=O)N[C@H](C=O)CC(=O)O)C(C)(C)C)cc1Cl (stereo in doubt) [II-62, (3S)-({2-[(2S)-(4-Acetylamino-3-chloro-benzoylamino)-3,3-dimethyl-butyryl]-2-(1S,4R)-aza-bicyclo[2.2.1]heptane-(3S)-carbonyl}-amino)-4-oxo-butyric acid] | < 10 | 10 to 20
CC(=O)Nc1ccc(C(=O)N[C@H](C(=O)N2CCC[C@H]2C(=O)N[C@H](C=O)CC(=O)O)C(C)(C)C)c(Cl)c1 [II-43, (S,S,S)-(3S)-({1-[(2S)-(2-chloro-4-acetamido-benzoylamino)-3,3-dimethyl-butyryl]-pyrrolidine-(2S)-carbonyl}-amino)-4-oxo-butyric acid] | < 10 | < 10
CC(C)[C@H](NC(=O)c1ccc(N)c(Cl)c1)C(=O)N1[C@@H]2CC[C@@H](C2)[C@H]1C(=O)N[C@H](C=O)CC(=O)O (stereo in doubt) [II-66, (3S)-({2-[(2S)-(4-Amino-3-chloro-benzoylamino)-3-methyl-butyryl]-2-(1S,4R)-aza-bicyclo[2.2.1]heptane-(3S)-carbonyl}-amino)-4-oxo-butyric acid] | 10 to 20 | < 10
COc1cccc(C(=O)N[C@H](C(=O)N2CCC[C@H]2C(=O)N[C@H](C=O)CC(=O)O)C(C)(C)C)c1C [II-20, (S,S,S)-(3S)-({1-[(2S)-(3-Methoxy-2-methyl-benzoylamino)-3,3-dimethyl-butyryl]-pyrrolidine-(2S)-carbonyl}-amino)-4-oxo-butyric acid] | < 10 | < 10
CC(C)(C)[C@H](NC(=O)c1ccccc1Cl)C(=O)N1[C@@H]2CC[C@@H](C2)[C@H]1C(=O)NC(C=O)CC(=O)O (stereo in doubt) [II-56, (3S)-({2-[(2S)-(2-Chloro-benzoylamino)-3,3-dimethyl-butyryl]-2-(1S,4R)-aza-bicyclo[2.2.1]heptane-(3S)-carbonyl}-amino)-4-oxo-butyric acid] | < 10 | < 10
COc1cccc(C(=O)N[C@H](C(=O)N2CCC[C@H]2C(=O)N[C@H](C=O)CC(=O)O)C(C)(C)C)c1Cl [II-30, (S,S,S)-(3S)-({1-[(2S)-(2-Chloro-3-methoxy-benzoylamino)-3,3-dimethyl-butyryl]-pyrrolidine-(2S)-carbonyl}-amino)-4-oxo-butyric acid] | < 10 | < 10
CC(C)(C)[C@H](NC(=O)c1ccccc1C(F)(F)F)C(=O)N1CCC[C@H]1C(=O)N[C@H](C=O)CC(=O)O [II-29, (S,S,S)-(3S)-({1-[3,3-Dimethyl-(2S)-(2-trifluoromethyl-benzoylamino)-butyryl]-pyrrolidine-(2S)-carbonyl}-amino)-4-oxo-butyric acid] | < 10 | < 10
COc1ccc(C)c(C(=O)N[C@H](C(=O)N2CCC[C@H]2C(=O)N[C@H](C=O)CC(=O)O)C(C)C)c1 [II-22, (S,S,S)-(3S)-({1-[(2S)-(5-Methoxy-2-methyl-benzoylamino)-3-methyl-butyryl]-pyrrolidine-(2S)-carbonyl}-amino)-4-oxo-butyric acid] | < 10 | 21 to 30
O=C[C@H](CC(=O)O)NC(=O)[C@@H]1CCCN1C(=O)[C@H](CC(F)(F)F)NC(=O)c1ccccc1Cl [II-24, (S,S,S)-(3S)-({1-[(2S)-(2-Chloro-benzoylamino)-4,4,4-trifluoro-butyryl]-pyrrolidine-(2S)-carbonyl}-amino)-4-oxo-butyric acid] | < 10 | 21 to 30
Cc1c(O)cccc1C(=O)N[C@H](C(=O)N1CCC[C@H]1C(=O)N[C@H](C=O)CC(=O)O)C(C)C [II-6, (S,S,S)-(3S)-({1-[(2S)-(3-Hydroxy-2-methyl-benzoylamino)-3-methyl-butyryl]-pyrrolidine-(2S)-carbonyl}-amino)-4-oxo-butyric acid] | < 10 | < 10
CC(C)[C@H](NC(=O)c1ccccc1OC(F)(F)F)C(=O)N1CCC[C@H]1C(=O)N[C@H](C=O)CC(=O)O [II-5, (S,S,S)-(3S)-({1-[3-Methyl-(2S)-(2-trifluoromethoxy-benzoylamino)-butyryl]-pyrrolidine-(2S)-carbonyl}-amino)-4-oxo-butyric acid] | < 10 | 10 to 20
O=C[C@H](CC(=O)O)NC(=O)[C@@H]1CCCN1C(=O)[C@H](Cc1cscn1)NC(=O)c1ccccc1Cl [II-25, (S,S,S)-(3S)-({1-[(2S)-(2-Chloro-benzoylamino)-3-thiazol-4-yl-propionyl]-pyrrolidine-(2S)-carbonyl}-amino)-4-oxo-butyric acid] | < 10 | 21 to 30
COc1ccc(C(=O)N[C@H](C(=O)N2CCC[C@H]2C(=O)N[C@H](C=O)CC(=O)O)C(C)C)c(Cl)c1 [II-37, (S,S,S)-(3S)-({1-[(2S)-(2-chloro-4-methoxy-benzoylamino)-3-methyl-butyryl]-pyrrolidine-(2S)-carbonyl}-amino)-4-oxo-butyric acid] | < 10 | 10 to 20
CC(C)[C@H](NC(=O)c1c(Cl)cccc1Cl)C(=O)N1CCC[C@H]1C(=O)N[C@H](C=O)CC(=O)O [II-13, (S,S,S)-(3S)-({1-[(2S)-(2,6-Dichloro-benzoylamino)-3-methyl-butyryl]-pyrrolidine-(2S)-carbonyl}-amino)-4-oxo-butyric acid] | 10 to 20 | 10 to 20
CC(C)(C)[C@H](NC(=O)c1cccc(Oc2ccccc2)c1Cl)C(=O)N1CCC[C@H]1C(=O)N[C@H](C=O)CC(=O)O [II-52, (S,S,S)-(3S)-({1-[(2S)-(2-chloro-3-phenoxy-benzoylamino)-3,3-dimethyl-butyryl]-pyrrolidine-(2S)-carbonyl}-amino)-4-oxo-butyric acid] | < 10 | < 10
CC(C)(C)[C@H](NC(=O)c1ccc(N)c(Cl)c1)C(=O)N1[C@@H]2CC[C@@H](C2)[C@H]1C(=O)N[C@H](C=O)CC(=O)O (stereo in doubt) [II-65, (3S)-({2-[(2S)-(4-Amino-3-chloro-benzoylamino)-3,3-dimethyl-butyryl]-2-(1S,4R)-aza-bicyclo[2.2.1]heptane-(3S)-carbonyl}-amino)-4-oxo-butyric acid] | < 10 | < 10
